Columns and labels:
Type in all cases: binding
[1] = target: Recombinant human integrin αvβ8 (Homo sapiens (Human), UniProt P06756+P26012); assay: Solid Phase Receptor Assay (SPRA) for αvβ8 function; conditions: LAP-coated plate
Experimental: 6. Solid Phase Receptor Assay (SPRA) for αvβ8 Function
Recombinant human LAP protein (R&D Systems, Inc, 246-LP) diluted to 0.5 μg/mL in TBS+ buffer (25 mM Tris pH 7.4, 137 mM NaCl, 2.7 mM KCl, 1 mM CaCl2, 1 mM MgCl2, 1 mM MnCl2) was added to wells (50 μl/well) of a 96-well half-well transparent microtiter plate (Greiner 675061), and incubated overnight at 4° C. Wells were washed 3 times with 150 μL TBS+ and 150 μL of blocking buffer (TBS+ with 1% bovine serum albumin, Sigma A7906) were added. The plate was incubated for 1 hr at 37° C. and then washed 3× with TBS+. Recombinant human integrin αvβ8 (R&D Systems, 4135-AV) was diluted to 0.1 μg/mL in TBS+/0.1% bovine serum albumin. Compounds were diluted 1:100 into the integrin solution and 50 μL added to empty wells of the washed LAP-coated plate according to a standard template with each sample repeated in triplicate. After incubation for two hours at room temperature, the plate was washed 3× with 150 μL of TBS+. To each well, 50 μL of biotinylated anti-αv antibody (R&D Systems, BAF1219) at 1 μg/mL in TBS+/0.1% BSA were added and the plate was covered and incubated for 1 hr at room temperature. After washing the plate 3× with 150 μL of TBS+ buffer, 50 μL of streptavidin-conjugated horseradish peroxidase (R&D Systems, DY998) diluted in TBS+ blocking buffer were added to the wells and the plate incubated for 20 min at room temperature. The plate was washed 3× with TBS+ followed by 50 μL of TMB substrate (Sigma T4444) added to each well and the plate incubated for 20 min at room temperature. Plates were read by colorimetric detection at 650 nm wavelength using a Tecan Safire II plate reader. Concentration-response curves were constructed by non-linear regression (best fit) analysis, and IC50 values were calculated for each compound.

[2] = target: Recombinant human integrin α8β1 (Homo sapiens (Human), UniProt P05556+P53708); assay: Solid Phase Receptor Assay (SPRA) for α8β1 function; conditions: mouse nephronectin-coated plate
Experimental: 7. Solid Phase Receptor Assay (SPRA) for α8β1 Function
Recombinant mouse nephronectin protein (R&D Systems, Inc, 4298-NP) diluted to 1 μg/mL in TBS+ buffer (25 mM Tris pH 7.4, 137 mM NaCl, 2.7 mM KCl, 1 mM CaCl2, 1 mM MgCl2, 1 mM MnCl2) was added to wells (50 μl/well) of a 96-well half-well transparent microtiter plate (Greiner 675061), and incubated overnight at 4° C. Wells were washed 3 times with 150 μL TBS+ and 150 μL of blocking buffer (TBS+ with 1% bovine serum albumin, Sigma A7906) were added. The plate was incubated for 1 hr at 37° C. and then washed 3× with TBS+. Recombinant human integrin α8β1 (R&D Systems, pre-launch) was diluted to 0.25 μg/mL in TBS+/0.1% bovine serum albumin. Compounds were diluted 1:100 into the integrin solution and 50 μL added to empty wells of the washed nephronectin-coated plate according to a standard template with each sample repeated in triplicate. After incubation for two hours at room temperature, the plate was washed 3× with 150 μL of TBS+. To each well, 50 μL of biotinylated anti-β antibody (R&D Systems, BAF1778) at 0.5 μg/mL in TBS+/0.1% BSA were added and the plate was covered and incubated for 1 hr at room temperature. After washing the plate 3× with 150 μL of TBS+ buffer, 50 μL of streptavidin-conjugated horseradish peroxidase (R&D Systems, DY998) diluted in TBS+ blocking buffer were added to the wells and the plate incubated for 20 min at room temperature. The plate was washed 3× with TBS+ followed by 50 μL of TMB substrate (Sigma T4444) added to each well and the plate incubated for 20 min at room temperature. Plates were read by colorimetric detection at 650 nm wavelength using a Tecan Safire II plate reader. Concentration-response curves were constructed by non-linear regression (best fit) analysis, and IC50 values were calculated for each compound.

[3] = target: Recombinant human integrin αvβ6 (Homo sapiens (Human), UniProt P06756+P18564); assay: Solid Phase Receptor Assay (SPRA) for αvβ6 function; conditions: LAP-coated plate
Experimental: 5. Solid Phase Receptor Assay (SPRA) for αvβ6 Function
Recombinant human LAP (R&D Systems, 246-LP) diluted to 0.25 μg/mL in TBS+ buffer (25 mM Tris pH 7.4, 137 mM NaCl, 2.7 mM KCl, 1 mM CaCl2, 1 mM MgCl2, 1 mM MnCl2) was added to wells (50 μL/well) of a 96-well half-well transparent microtiter plate (Greiner 675061) and incubated overnight at 4° C. Wells were washed 3 times with 150 μL TBS+, and 150 μL of blocking buffer (TBS+ with 1% bovine serum albumin, Sigma A7906) were added. The plate was incubated for 1 hr at 37° C., and then washed 3× with TBS+ buffer. Recombinant human integrin αvβ6 (R&D Systems, 3817-AV) was diluted to 0.1 μg/mL in TBS+/0.1% bovine serum albumin. Compounds were diluted 1:100 into the integrin solution and then 50 μL added to empty wells of the washed LAP-coated plate according to a standard template with each sample repeated in triplicate. After incubation for two hours at room temperature, the plate was washed 3× with 150 μL of TBS+ buffer. To each well, 50 μL of biotinylated anti-αv antibody (R&D Systems, BAF1219) at 0.5 μg/mL in TBS+/0.1% BSA were added and the plate was covered and incubated for 1 hr at room temperature. After washing the plate 3× with 150 μL of TBS+ buffer, 50 μL of streptavidin-conjugated horseradish peroxidase (R&D Systems, DY998) diluted in TBS+ blocking buffer were added to the wells and the plate incubated for 20 min at room temperature. The plate was washed 3× with TBS+ buffer followed by 50 μL of TMB substrate (Sigma T4444) added to each well and the plate incubated for 20 min at room temperature. Plates were read by colorimetric detection at 650 nm wavelength using a Tecan Safire II plate reader. Concentration-response curves were constructed by non-linear regression (best fit) analysis, and IC50 values were calculated for each compound.

Sequence of Recombinant human integrin α8β1 (P53708 39-1012): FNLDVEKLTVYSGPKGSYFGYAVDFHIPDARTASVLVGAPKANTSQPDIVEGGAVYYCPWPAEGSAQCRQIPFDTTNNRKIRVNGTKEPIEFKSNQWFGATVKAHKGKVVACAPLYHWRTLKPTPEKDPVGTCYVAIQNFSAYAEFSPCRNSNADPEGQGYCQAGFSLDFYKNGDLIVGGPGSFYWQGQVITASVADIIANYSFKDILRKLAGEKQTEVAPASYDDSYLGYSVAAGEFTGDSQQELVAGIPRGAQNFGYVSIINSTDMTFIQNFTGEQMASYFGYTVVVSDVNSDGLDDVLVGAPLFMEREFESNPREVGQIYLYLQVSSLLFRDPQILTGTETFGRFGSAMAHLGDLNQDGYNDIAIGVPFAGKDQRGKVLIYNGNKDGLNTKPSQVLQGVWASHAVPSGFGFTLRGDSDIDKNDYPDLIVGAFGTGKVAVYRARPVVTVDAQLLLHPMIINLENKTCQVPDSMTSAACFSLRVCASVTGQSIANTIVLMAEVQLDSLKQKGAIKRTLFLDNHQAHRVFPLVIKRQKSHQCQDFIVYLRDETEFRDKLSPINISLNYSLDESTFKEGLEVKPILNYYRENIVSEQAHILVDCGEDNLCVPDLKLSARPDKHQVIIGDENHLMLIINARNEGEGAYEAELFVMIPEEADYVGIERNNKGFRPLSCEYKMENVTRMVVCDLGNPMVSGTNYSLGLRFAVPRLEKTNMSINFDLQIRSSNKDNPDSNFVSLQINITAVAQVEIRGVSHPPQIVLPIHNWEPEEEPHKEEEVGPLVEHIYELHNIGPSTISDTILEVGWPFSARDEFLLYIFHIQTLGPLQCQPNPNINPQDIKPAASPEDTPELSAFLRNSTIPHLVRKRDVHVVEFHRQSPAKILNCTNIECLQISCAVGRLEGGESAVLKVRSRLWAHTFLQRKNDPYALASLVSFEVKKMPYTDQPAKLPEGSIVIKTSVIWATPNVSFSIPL
Sequence of Recombinant human integrin α8β1 (P05556 21-728): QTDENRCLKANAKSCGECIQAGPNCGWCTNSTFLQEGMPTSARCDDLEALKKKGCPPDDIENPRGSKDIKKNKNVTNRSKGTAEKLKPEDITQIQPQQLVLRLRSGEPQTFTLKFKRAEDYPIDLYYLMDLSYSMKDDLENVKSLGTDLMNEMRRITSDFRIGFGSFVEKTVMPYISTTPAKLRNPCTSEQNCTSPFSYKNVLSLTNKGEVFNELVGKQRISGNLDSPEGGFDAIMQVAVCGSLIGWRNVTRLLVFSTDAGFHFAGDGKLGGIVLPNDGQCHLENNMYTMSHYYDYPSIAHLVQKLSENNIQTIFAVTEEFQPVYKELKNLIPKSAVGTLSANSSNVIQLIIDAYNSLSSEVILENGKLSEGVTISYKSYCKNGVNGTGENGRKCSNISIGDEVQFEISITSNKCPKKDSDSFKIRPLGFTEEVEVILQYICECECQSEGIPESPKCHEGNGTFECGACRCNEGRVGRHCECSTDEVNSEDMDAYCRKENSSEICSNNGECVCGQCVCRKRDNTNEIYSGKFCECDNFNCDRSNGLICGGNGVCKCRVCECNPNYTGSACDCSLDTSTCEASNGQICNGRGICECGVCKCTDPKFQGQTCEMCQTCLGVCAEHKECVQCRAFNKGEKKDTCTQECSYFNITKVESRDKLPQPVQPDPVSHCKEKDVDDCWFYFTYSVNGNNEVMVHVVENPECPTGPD
Sequence of Recombinant human integrin αvβ6 (P06756 31-992): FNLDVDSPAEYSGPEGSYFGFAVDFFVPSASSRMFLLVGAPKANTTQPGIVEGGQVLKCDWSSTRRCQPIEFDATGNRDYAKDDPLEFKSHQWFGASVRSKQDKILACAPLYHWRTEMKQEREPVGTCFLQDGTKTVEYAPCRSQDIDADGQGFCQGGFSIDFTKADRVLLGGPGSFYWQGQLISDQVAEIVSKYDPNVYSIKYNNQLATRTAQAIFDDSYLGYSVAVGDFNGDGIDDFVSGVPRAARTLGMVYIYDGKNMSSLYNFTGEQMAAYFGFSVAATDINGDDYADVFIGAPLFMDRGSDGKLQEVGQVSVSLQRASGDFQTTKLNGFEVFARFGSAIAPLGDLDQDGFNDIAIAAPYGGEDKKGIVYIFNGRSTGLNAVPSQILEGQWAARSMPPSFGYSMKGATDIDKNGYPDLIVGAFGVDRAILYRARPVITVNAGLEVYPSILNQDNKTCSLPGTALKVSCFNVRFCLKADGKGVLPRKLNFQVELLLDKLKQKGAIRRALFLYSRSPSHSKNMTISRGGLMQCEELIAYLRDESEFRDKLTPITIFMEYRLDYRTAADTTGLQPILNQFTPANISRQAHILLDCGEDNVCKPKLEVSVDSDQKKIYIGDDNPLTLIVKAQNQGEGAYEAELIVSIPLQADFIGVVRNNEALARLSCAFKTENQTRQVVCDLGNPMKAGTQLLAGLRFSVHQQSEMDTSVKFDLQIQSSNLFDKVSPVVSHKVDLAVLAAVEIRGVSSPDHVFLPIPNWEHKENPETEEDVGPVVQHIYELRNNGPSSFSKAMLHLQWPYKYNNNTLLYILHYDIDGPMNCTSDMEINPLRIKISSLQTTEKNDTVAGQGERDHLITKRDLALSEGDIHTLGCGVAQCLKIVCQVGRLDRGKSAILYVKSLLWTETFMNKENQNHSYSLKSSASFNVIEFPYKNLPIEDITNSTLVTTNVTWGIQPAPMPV
Sequence of Recombinant human integrin αvβ6 (P18564 22-707): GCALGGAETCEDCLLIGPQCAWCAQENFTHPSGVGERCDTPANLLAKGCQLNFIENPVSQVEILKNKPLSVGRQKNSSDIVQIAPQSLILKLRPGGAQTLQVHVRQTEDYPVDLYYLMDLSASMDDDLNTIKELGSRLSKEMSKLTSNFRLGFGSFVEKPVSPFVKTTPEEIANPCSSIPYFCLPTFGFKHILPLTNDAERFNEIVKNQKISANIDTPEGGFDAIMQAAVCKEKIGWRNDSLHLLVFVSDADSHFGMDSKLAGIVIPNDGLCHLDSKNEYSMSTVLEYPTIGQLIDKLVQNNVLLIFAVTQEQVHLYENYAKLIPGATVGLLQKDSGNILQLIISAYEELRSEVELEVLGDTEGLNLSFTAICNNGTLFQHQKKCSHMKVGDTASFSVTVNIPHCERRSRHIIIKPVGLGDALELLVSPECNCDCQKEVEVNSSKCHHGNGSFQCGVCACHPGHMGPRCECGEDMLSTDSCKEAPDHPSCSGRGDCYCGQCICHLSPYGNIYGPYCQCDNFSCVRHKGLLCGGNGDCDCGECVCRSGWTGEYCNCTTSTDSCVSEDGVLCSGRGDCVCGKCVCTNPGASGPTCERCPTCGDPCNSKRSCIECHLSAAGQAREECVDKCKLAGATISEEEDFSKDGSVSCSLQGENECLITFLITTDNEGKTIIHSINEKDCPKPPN
Sequence of Recombinant human integrin αvβ8 (P06756 31-992): as the sequence (P06756 31-992) above
Sequence of Recombinant human integrin αvβ8 (P26012 43-684): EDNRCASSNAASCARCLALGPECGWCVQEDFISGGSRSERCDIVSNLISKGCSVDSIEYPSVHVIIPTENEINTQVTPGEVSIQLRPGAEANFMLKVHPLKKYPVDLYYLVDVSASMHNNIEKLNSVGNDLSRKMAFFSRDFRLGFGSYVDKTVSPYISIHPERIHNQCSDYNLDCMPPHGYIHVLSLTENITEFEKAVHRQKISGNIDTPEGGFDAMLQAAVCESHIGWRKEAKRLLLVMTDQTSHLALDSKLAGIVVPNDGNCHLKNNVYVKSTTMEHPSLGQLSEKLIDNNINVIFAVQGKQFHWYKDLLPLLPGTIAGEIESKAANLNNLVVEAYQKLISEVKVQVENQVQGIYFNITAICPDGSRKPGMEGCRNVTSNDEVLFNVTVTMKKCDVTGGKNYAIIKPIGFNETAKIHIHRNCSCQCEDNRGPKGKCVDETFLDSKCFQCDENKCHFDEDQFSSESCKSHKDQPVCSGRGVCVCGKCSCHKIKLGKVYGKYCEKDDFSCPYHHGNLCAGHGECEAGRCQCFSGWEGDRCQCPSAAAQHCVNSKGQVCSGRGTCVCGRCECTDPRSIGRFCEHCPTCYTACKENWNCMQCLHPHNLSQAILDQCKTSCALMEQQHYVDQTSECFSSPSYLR

Compound	IC50 [1] [nM]	IC50 [2] [nM]	IC50 [3] [nM]
O=C(O)C[C@H](NC(=O)CNC(=O)c1cc(O)cc(NC2=NCC(O)CN2)c1)c1cc(Br)cc(Br)c1 (stereo partly drawn) [Example 1, (3S)-3-(3,5-dibromophenyl)-3-(2-(3-hydroxy-5-((5-hydroxy-1,4,5,6-tetrahydropyrimidin-2-yl)amino)benzamido)acetamido)propanoic acid]	0.3 ± 0.1	1.3	0.4
O=C(O)C[C@H](NC(=O)CNC(=O)c1cc(O)cc(NC2=NCC(O)CN2)c1)c1cc(Br)cc(C(F)(F)F)c1 (stereo partly drawn) [Example 2, (3S)-3-(3-bromo-5-(trifluoromethyl)phenyl)-3-(2-(3-hydroxy-5-((5-hydroxy-1,4,5,6-tetrahydropyrimidin-2-yl)amino)benzamido)acetamido)propanoic acid]	0.5	1.5	0.3
O=C(O)C[C@H](NC(=O)CNC(=O)c1cc(O)cc(NC2=NCC(O)CN2)c1)c1cc(Cl)cc(C(F)F)c1 (stereo partly drawn) [Example 3, (3S)-3-[3-chloro-5-(difluoromethyl)phenyl)-3-(2-(3-hydroxy-5-((5-hydroxy-1,4,5,6-tetrahydropyrimidin-2-yl)amino)benzamido)acetamido]propanoic acid]	0.3	0.9	0.4
O=C(O)C[C@H](NC(=O)CNC(=O)c1cc(O)cc(NC2=NCC(O)CN2)c1)c1cc(Br)cc(C(F)F)c1 (stereo partly drawn) [Example 4, (3S)-3-[3-bromo-5-(difluoromethyl)phenyl)-3-(2-(3-hydroxy-5-((5-hydroxy-1,4,5,6-tetrahydropyrimidin-2-yl)amino)benzamido)acetamido]propanoic acid]	0.4	0.6	0.4
O=C(O)C[C@H](NC(=O)CNC(=O)c1cc(O)cc(NC2=NCC(O)CN2)c1)c1cc(Cl)cc(C(F)(F)F)c1 (stereo partly drawn) [Example 5, (3S)-3-[3-chloro-5-(trifluoromethyl)phenyl)-3-(2-(3-hydroxy-5-((5-hydroxy-1,4,5,6-tetrahydropyrimidin-2-yl)amino)benzamido)acetamido]propanoic acid]	0.6	0.9	0.5
O=C(O)C[C@H](NC(=O)CNC(=O)c1cc(O)cc(NC2=NCC(O)CN2)c1)c1cc(Cl)cc(Br)c1 (stereo partly drawn) [Example 6, (3S)-3-[3-bromo-5-chloro-phenyl)-3-(2-(3-hydroxy-5-((5-hydroxy-1,4,5,6-tetrahydropyrimidin-2-yl)amino)benzamido)acetamido]propanoic acid]	0.5	0.5	0.4
O=C(O)C[C@H](NC(=O)CNC(=O)c1cncc(NC2=NCC(O)CN2)c1)c1cc(Cl)cc(C(F)(F)F)c1 (stereo partly drawn) [Example 7]	0.4	0.6	0.3
O=C(O)C[C@H](NC(=O)CNC(=O)c1cncc(NC2=NCC(O)CN2)c1)c1cc(Cl)cc(Br)c1 (stereo partly drawn) [Example 8, (3S)-3-(3-bromo-5-chloro-phenyl)-3-[[2-[[5-[(5-hydroxy-1,4,5,6-tetrahydropyrimidin-2-yl)amino]pyridine-3-carbonyl]amino]acetyl]amino]propanoic acid]	0.4	0.6	0.4
O=C(O)C[C@H](NC(=O)CNC(=O)c1cncc(NC2=NCC(O)CN2)c1)c1cc(Br)cc(C(F)(F)F)c1 (stereo partly drawn) [Example 9, (3S)-3-[3-bromo-5-(trifluoromethyl)phenyl]-3-[[2-[[5-[(5-hydroxy-1,4,5,6-tetrahydropyrimidin-2-yl)amino]pyridine-3-carbonyl]amino]acetyl]amino]propanoic acid]	0.3	0.5	0.3
O=C(O)C[C@H](NC(=O)CNC(=O)c1cc(O)cc(NC2=NCC(O)CN2)c1)c1cc(C(F)(F)F)cc(C(F)(F)F)c1 (stereo partly drawn) [Example 10, (3S)-3-[3,5-bis(trifluoromethyl)phenyl)-3-(2-(3-hydroxy-5-((5-hydroxy-1,4,5,6-tetrahydropyrimidin-2-yl)amino)benzamido)acetamido]propanoic acid]	0.3 ± 0.1	1.1	0.3 ± 0.1
Cc1cc(Br)cc([C@H](CC(=O)O)NC(=O)CNC(=O)c2cc(O)cc(NC3=NCC(O)CN3)c2)c1 (stereo partly drawn) [Example 11, (3S)-3-[3-bromo-5-methyl-phenyl)-3-(2-(3-hydroxy-5-((5-hydroxy-1,4,5,6-tetrahydropyrimidin-2-yl)amino)benzamido)acetamido)propanoic acid]	0.6	0.7	0.5
Cc1cc(Cl)cc([C@H](CC(=O)O)NC(=O)CNC(=O)c2cc(O)cc(NC3=NCC(O)CN3)c2)c1 (stereo partly drawn) [Example 12, (3S)-3-[3-chloro-5-methyl-phenyl)-3-(2-(3-hydroxy-5-((5-hydroxy-1,4,5,6-tetrahydropyrimidin-2-yl)amino)benzamido)acetamido)propanoic acid]	0.7 ± 0.1	0.8	0.6
O=C(O)C[C@H](NC(=O)CNC(=O)c1cc(O)cc(NC2=NCC(O)CN2)c1)c1cc(F)cc(Br)c1 (stereo partly drawn) [Example 13, (3S)-3-[3-bromo-5-fluoro-phenyl)-3-(2-(3-hydroxy-5-((5-hydroxy-1,4,5,6-tetrahydropyrimidin-2-yl)amino)benzamido)acetamido)propanoic acid]	1 ± 0.3	0.6	0.4
O=C(O)C[C@H](NC(=O)CNC(=O)c1cncc(NC2=NCC(O)CN2)c1)c1cc(Br)cc(Br)c1 (stereo partly drawn) [Example 14, (3S)-3-(3,5-dibromophenyl)-3-[[2-[[5-[(5-hydroxy-1,4,5,6-tetrahydropyrimidin-2-yl)amino]pyridine-3-carbonyl]amino]acetyl]amino]propanoic acid]	0.2	0.4	0.2
O=C(O)C[C@H](NC(=O)CNC(=O)c1cc(O)cc(NC2=NCC(O)CN2)c1)c1cc(Cl)cc(Cl)c1 (stereo partly drawn) [Example 15, (3S)-3-[3,5-dichloro-phenyl)-3-(2-(3-hydroxy-5-((5-hydroxy-1,4,5,6-tetrahydropyrimidin-2-yl)amino)benzamido)acetamido)propanoic acid]	1.1 ± 0.3	1.2	0.6
